In patent US11530210B2, “Substituted heteroaromatic pyrazolo-pyridines and their use as GLUN2B receptor modulators” (JANSSEN PHARMACEUTICA NV, priority 2019, dated 2022):
pIC50: −log10 of the molar value.

The compounds below were run against T1, human GluN1/GluN2B NMDA receptors (Homo sapiens, UniProt Q13224) (assay: Calcium flux (FLIPR) assay on cloned human NR1/GluN2B ion channels expressed in mammalian cells (standard and HTS variants)). Conditions: cells expressing human GluN1/GluN2B, glutamate and glycine co-agonists.
T1 construct: expressed in transfected cells
T1 sequence (Q13224 27-1484, other chains not shown): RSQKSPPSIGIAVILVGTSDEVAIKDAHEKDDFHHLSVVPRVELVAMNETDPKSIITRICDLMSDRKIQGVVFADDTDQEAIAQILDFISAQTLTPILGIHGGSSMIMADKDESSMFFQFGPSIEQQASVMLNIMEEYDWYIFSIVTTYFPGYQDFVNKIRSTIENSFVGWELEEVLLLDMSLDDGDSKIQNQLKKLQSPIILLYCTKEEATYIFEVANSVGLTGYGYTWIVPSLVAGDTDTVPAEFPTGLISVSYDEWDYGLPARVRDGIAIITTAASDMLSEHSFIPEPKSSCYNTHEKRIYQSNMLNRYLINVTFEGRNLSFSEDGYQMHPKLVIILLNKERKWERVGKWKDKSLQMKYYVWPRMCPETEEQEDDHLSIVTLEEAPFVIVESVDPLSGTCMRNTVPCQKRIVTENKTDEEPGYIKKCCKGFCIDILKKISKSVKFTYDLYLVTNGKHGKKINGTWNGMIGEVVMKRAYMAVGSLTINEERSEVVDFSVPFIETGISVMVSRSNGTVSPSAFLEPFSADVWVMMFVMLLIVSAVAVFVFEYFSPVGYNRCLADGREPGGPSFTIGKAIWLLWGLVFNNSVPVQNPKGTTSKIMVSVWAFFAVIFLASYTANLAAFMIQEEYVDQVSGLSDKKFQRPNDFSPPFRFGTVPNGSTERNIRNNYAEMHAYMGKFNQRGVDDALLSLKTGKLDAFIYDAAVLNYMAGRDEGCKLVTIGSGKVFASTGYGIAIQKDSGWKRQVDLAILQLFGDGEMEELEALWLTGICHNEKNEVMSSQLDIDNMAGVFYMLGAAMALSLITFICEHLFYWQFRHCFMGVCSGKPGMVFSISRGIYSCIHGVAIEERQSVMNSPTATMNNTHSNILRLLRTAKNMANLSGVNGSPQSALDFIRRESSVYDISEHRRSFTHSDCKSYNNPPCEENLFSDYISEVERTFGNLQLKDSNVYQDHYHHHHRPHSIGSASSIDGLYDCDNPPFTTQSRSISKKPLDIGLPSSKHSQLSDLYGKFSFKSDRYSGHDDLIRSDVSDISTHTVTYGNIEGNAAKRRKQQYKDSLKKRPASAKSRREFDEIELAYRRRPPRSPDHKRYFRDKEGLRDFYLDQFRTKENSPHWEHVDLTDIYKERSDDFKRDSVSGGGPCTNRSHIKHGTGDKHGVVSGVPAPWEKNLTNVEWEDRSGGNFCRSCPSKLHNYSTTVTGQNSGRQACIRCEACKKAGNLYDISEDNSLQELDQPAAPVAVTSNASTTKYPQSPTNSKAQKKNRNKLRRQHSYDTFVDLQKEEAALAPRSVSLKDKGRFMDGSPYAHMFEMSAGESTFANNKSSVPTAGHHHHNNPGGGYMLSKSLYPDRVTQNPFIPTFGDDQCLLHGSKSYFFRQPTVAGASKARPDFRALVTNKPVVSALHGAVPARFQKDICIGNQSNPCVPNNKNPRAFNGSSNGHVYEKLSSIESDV
Type: cell-based
Outline: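 Tet-On-induced stable cell line loaded with Calcium 5 dye; compounds applied 5 min (agonist check), then glutamate at ~EC40 plus 10 μM glycine for 5 min. Buffer pH 7.4 with 0.5 mM MgCl2 in dye loading (standard) or 1.5 mM (HTS). FLIPR fluorescence normalized to control wells; (+)MK-801 as antagonist control.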

pIC50 | SMILES
7.51 | N#Cc1cncc(Cn2ncc3ncc(-c4ccc(F)c(C(F)F)c4)cc32)c1 [Example 203, 5-[[6-[3-(Difluoromethyl)-4-fluoro-phenyl]pyrazolo[4,3-b]pyridin-1-yl]methyl]pyridine-3-carbonitrile]
5.79 | COc1ccc(Cn2ncc3ncc(-c4ccc(F)c(C(F)F)c4)cc32)cn1 [Example 204, 6-[3-(Difluoromethyl)-4-fluoro-phenyl]-1-[(6-methoxy-3-pyridyl)methyl]pyrazolo[4,3-b]pyridine]
6.75 | COc1cccc(Cn2ncc3ncc(-c4ccc(F)c(C(F)F)c4)cc32)n1 [Example 205, 6-[3-(Difluoromethyl)-4-fluoro-phenyl]-1-[(6-methoxy-2-pyridyl)methyl]pyrazolo[4,3-b]pyridine]
6.51 | COc1ncccc1Cn1ncc2ncc(-c3ccc(F)c(C(F)F)c3)cc21 [Example 206, 6-[3-(Difluoromethyl)-4-fluoro-phenyl]-1-[(2-methoxy-3-pyridyl)methyl]pyrazolo[4,3-b]pyridine]
7.55 | COc1cncc(Cn2ncc3ncc(-c4ccc(F)c(C(F)F)c4)cc32)c1 [Example 207, 6-[3-(Difluoromethyl)-4-fluoro-phenyl]-1-[(5-methoxy-3-pyridyl)methyl]pyrazolo[4,3-b]pyridine]
7.59 | Fc1ccc(-c2cnc3cnn(Cc4cncc(Cl)c4)c3c2)cc1C(F)F [Example 208, 1-[(5-Chloro-3-pyridyl)methyl]-6-[3-(difluoromethyl)-4-fluoro-phenyl]pyrazolo[4,3-b]pyridine]
7.70 | Fc1ccc(-c2cnc3cnn(Cc4cncc(C(F)F)c4)c3c2)cc1C(F)F [Example 209, 6-[3-(Difluoromethyl)-4-fluoro-phenyl]-1-[[5-(difluoromethyl)-3-pyridyl]methyl]pyrazolo[4,3-b]pyridine]
6.96 | Fc1ccc(-c2cnc3cnn(Cc4cncc(OC(F)F)c4)c3c2)cc1C(F)F [Example 210, 1-[[5-(Difluoromethoxy)-3-pyridyl]methyl]-6-[3-(difluoromethyl)-4-fluoro-phenyl]pyrazolo[4,3-b]pyridine]
7.33 | Fc1ccc(-c2cnc3cnn(Cc4cncc(C(F)(F)F)c4)c3c2)cc1C(F)F [Example 211, 6-[3-(Difluoromethyl)-4-fluoro-phenyl]-1-[[5-(trifluoromethyl)-3-pyridyl]methyl]pyrazolo[4,3-b]pyridine]
7.17 | N#Cc1cncc(Cn2ncc3ncc(-c4cccc(C(F)F)c4F)cc32)c1 [Example 212, 5-[[6-[3-(Difluoromethyl)-2-fluoro-phenyl]pyrazolo[4,3-b]pyridin-1-yl]methyl]pyridine-3-carbonitrile]
7.17 | Fc1c(-c2cnc3cnn(Cc4cncc(Cl)c4)c3c2)cccc1C(F)F [Example 213, 1-[(5-Chloro-3-pyridyl)methyl]-6-[3-(difluoromethyl)-2-fluoro-phenyl]pyrazolo[4,3-b]pyridine]
5.72 | Fc1ccc(Cn2ncc3ncc(-c4ccc(Cl)c(Cl)c4)cc32)cn1 [Example 214, 6-(3,4-Dichlorophenyl)-1-[(6-fluoro-3-pyridyl)methyl]pyrazolo[4,3-b]pyridine]
6.66 | COc1cncc(Cn2ncc3ncc(-c4ccc(Cl)c(Cl)c4)cc32)c1 [Example 215, 6-(3,4-Dichlorophenyl)-1-[(5-methoxy-3-pyridyl)methyl]pyrazolo[4,3-b]pyridine]
6.96 | CC(F)(F)c1cc(-c2cnc3cnn(Cc4cccnc4)c3c2)ccc1F [Example 216, 6-[3-(1,1-Difluoroethyl)-4-fluoro-phenyl]-1-(3-pyridylmethyl)pyrazolo[4,3-b]pyridine]
6.72 | Cc1cncc(Cn2ncc3ncc(-c4ccc(F)c(C(C)(F)F)c4)cc32)c1 [Example 217, 6-[3-(1,1-Difluoroethyl)-4-fluoro-phenyl]-1-[(5-methyl-3-pyridyl)methyl]pyrazolo[4,3-b]pyridine]
6.97 | CC(F)(F)c1cc(-c2cnc3cnn(Cc4cncc(F)c4)c3c2)ccc1F [Example 218, 6-[3-(1,1-Difluoroethyl)-4-fluoro-phenyl]-1-[(5-fluoro-3-pyridyl)methyl]pyrazolo[4,3-b]pyridine]
6.80 | CC(F)(F)c1cc(-c2cnc3cnn(Cc4cncc(C#N)c4)c3c2)ccc1F [Example 219, 5-[[6-[3-(1,1-Difluoroethyl)-4-fluoro-phenyl]pyrazolo[4,3-b]pyridin-1-yl]methyl]pyridine-3-carbonitrile]
7.05 | COc1cncc(Cn2ncc3ncc(-c4ccc(F)c(C(C)(F)F)c4)cc32)c1 [Example 220, 6-[3-(1,1-Difluoroethyl)-4-fluoro-phenyl]-1-[(5-methoxy-3-pyridyl)methyl]pyrazolo[4,3-b]pyridine]
7.19 | CC(F)(F)c1cc(-c2cnc3cnn(Cc4cncc(Cl)c4)c3c2)ccc1F [Example 221, 1-[(5-Chloro-3-pyridyl)methyl]-6-[3-(1,1-difluoroethyl)-4-fluoro-phenyl]pyrazolo[4,3-b]pyridine]

pIC50 | SMILES
6.30 | Fc1ccc(-c2cnc3cnn(Cc4ccccn4)c3c2)cc1OC(F)F [Example 222, 6-[3-(Difluoromethoxy)-4-fluoro-phenyl]-1-(2-pyridylmethyl)pyrazolo[4,3-b]pyridine]
7.42 | Fc1ccc(-c2cnc3cnn(Cc4cccnc4)c3c2)cc1OC(F)F [Example 223, 6-[3-(Difluoromethoxy)-4-fluoro-phenyl]-1-(3-pyridylmethyl)pyrazolo[4,3-b]pyridine]
7.25 | Cc1cncc(Cn2ncc3ncc(-c4ccc(F)c(OC(F)F)c4)cc32)c1 [Example 224, 6-[3-(Difluoromethoxy)-4-fluoro-phenyl]-1-[(5-methyl-3-pyridyl)methyl]pyrazolo[4,3-b]pyridine]
7.41 | Fc1cncc(Cn2ncc3ncc(-c4ccc(F)c(OC(F)F)c4)cc32)c1 [Example 225, 6-[3-(Difluoromethoxy)-4-fluoro-phenyl]-1-[(5-fluoro-3-pyridyl)methyl]pyrazolo[4,3-b]pyridine]
7.17 | N#Cc1cncc(Cn2ncc3ncc(-c4ccc(F)c(OC(F)F)c4)cc32)c1 [Example 226, 5-[[6-[3-(Difluoromethoxy)-4-fluoro-phenyl]pyrazolo[4,3-b]pyridin-1-yl]methyl]pyridine-3-carbonitrile]
5.79 | COc1ccc(Cn2ncc3ncc(-c4ccc(F)c(OC(F)F)c4)cc32)cn1 [Example 227, 6-[3-(Difluoromethoxy)-4-fluoro-phenyl]-1-[(6-methoxy-3-pyridyl)methyl]pyrazolo[4,3-b]pyridine]
6.42 | COc1cccc(Cn2ncc3ncc(-c4ccc(F)c(OC(F)F)c4)cc32)n1 [Example 228, 6-[3-(Difluoromethoxy)-4-fluoro-phenyl]-1-[(6-methoxy-2-pyridyl)methyl]pyrazolo[4,3-b]pyridine]
6.15 | COc1ncccc1Cn1ncc2ncc(-c3ccc(F)c(OC(F)F)c3)cc21 [Example 229, 6-[3-(Difluoromethoxy)-4-fluoro-phenyl]-1-[(2-methoxy-3-pyridyl)methyl]pyrazolo[4,3-b]pyridine]
7.32 | COc1cncc(Cn2ncc3ncc(-c4ccc(F)c(OC(F)F)c4)cc32)c1 [Example 230, 6-[3-(Difluoromethoxy)-4-fluoro-phenyl]-1-[(5-methoxy-3-pyridyl)methyl]pyrazolo[4,3-b]pyridine]
7.41 | Fc1ccc(-c2cnc3cnn(Cc4cncc(Cl)c4)c3c2)cc1OC(F)F [Example 231, 1-[(5-Chloro-3-pyridyl)methyl]-6-[3-(difluoromethoxy)-4-fluoro-phenyl]pyrazolo[4,3-b]pyridine]
7.40 | COc1cncc(Cn2ncc3ncc(-c4ccc(Cl)c(C(F)F)c4)cc32)c1 [Example 232, 6-[4-chloro-3-(Difluoromethyl)phenyl]-1-[(5-methoxy-3-pyridyl)methyl]pyrazolo[4,3-b]pyridine]
7.12 | Fc1cncc(Cn2ncc3ncc(-c4ccc(F)c(C(F)(F)F)c4)cc32)c1 [Example 233, 1-[(5-Fluoro-3-pyridyl)methyl]-6-[4-fluoro-3-(trifluoromethyl)phenyl]pyrazolo[4,3-b]pyridine]
7.04 | COc1cncc(Cn2ncc3ncc(-c4ccc(F)c(C(F)(F)F)c4)cc32)c1 [Example 234, 6-[4-Fluoro-3-(trifluoromethyl)phenyl]-1-[(5-methoxy-3-pyridyl)methyl]pyrazolo[4,3-b]pyridine]
6.60 | Fc1ccc(Cn2ncc3ncc(-c4ccc(F)c(Br)c4)cc32)cn1 [Example 235, 6-(3-Bromo-4-fluorophenyl)-1-((6-fluoropyridin-3-yl)methyl)-1H-pyrazolo[4,3-b]pyridine]
6.31 | CC(F)(F)c1cc(-c2cnc3cnn(Cc4cncc(C#N)c4)c3c2)ccc1Cl [Example 236, 5-[[6-[4-Chloro-3-(1,1-difluoroethyl)phenyl]pyrazolo[4,3-b]pyridin-1-yl]methyl]pyridine-3-carbonitrile]
6.70 | CC(F)(F)c1cc(-c2cnc3cnn(Cc4cncc(Cl)c4)c3c2)ccc1Cl [Example 237, 6-[4-Chloro-3-(1,1-difluoroethyl)phenyl]-1-[(5-chloro-3-pyridyl)methyl]pyrazolo[4,3-b]pyridine]
6.93 | FC(F)Oc1cc(-c2cnc3cnn(Cc4cccnc4)c3c2)ccc1Cl [Example 238, 6-[4-Chloro-3-(difluoromethoxy)phenyl]-1-(3-pyridylmethyl)pyrazolo[4,3-b]pyridine]
6.92 | Cc1cncc(Cn2ncc3ncc(-c4ccc(Cl)c(OC(F)F)c4)cc32)c1 [Example 239, 6-[4-Chloro-3-(difluoromethoxy)phenyl]-1-[(5-methyl-3-pyridyl)methyl]pyrazolo[4,3-b]pyridine]
6.78 | Fc1cncc(Cn2ncc3ncc(-c4ccc(Cl)c(OC(F)F)c4)cc32)c1 [Example 240, 6-[4-Chloro-3-(difluoromethoxy)phenyl]-1-[(5-fluoro-3-pyridyl)methyl]pyrazolo[4,3-b]pyridine]
